Data: ChEMBL document CHEMBL1201862, “PubChem BioAssay data set” (2004)
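Values below derive from 48-hour exposures of cells grown in 96-well plates, with endpoints linearly interpolated between the two concentrations bracketing the appropriate inhibition level. Here, GI50 denotes the concentration required for 50% inhibition of growth.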 Active and inactive are the calls of the source. Cut-off read from the data, not from the text of the source: active = GI50 up to about 1.1 µM and inactive = higher.

Tests used:
Assay in all cases: DTP human tumour cell line panel, 48 h
SN12C = tested on: SN12C
LXFL 529 = tested on: LXFL 529
SK-MEL-5 = tested on: SK-MEL-5
UO-31 = tested on: UO-31
HT-29 = tested on: HT-29
SF-295 = tested on: SF-295
HCT-116 = tested on: HCT-116
OVCAR-3 = tested on: OVCAR-3
EKVX = tested on: EKVX
RXF 393 = tested on: RXF 393
UACC-62 = tested on: UACC-62
A549 = tested on: A549
HOP-62 = tested on: HOP-62
NCI-H460 = tested on: NCI-H460
K562 = tested on: K562
XF498 = tested on: XF498
A498 = tested on: A498
MCF7 = tested on: MCF7
Hs-578T = tested on: Hs-578T
MDA-N = tested on: MDA-N

| SMILES | GI50 (SN12C) | GI50 (LXFL 529) | GI50 (SK-MEL-5) | GI50 (UO-31) | GI50 (HT-29) | GI50 (SF-295) | GI50 (HCT-116) | GI50 (OVCAR-3) | GI50 (EKVX) | GI50 (RXF 393) | GI50 (UACC-62) | GI50 (A549) | GI50 (HOP-62) | GI50 (NCI-H460) | GI50 (K562) | GI50 (XF498) | GI50 (A498) | GI50 (MCF7) | GI50 (Hs-578T) | GI50 (MDA-N) |
| --- | --- | --- | --- | --- | --- | --- | --- | --- | --- | --- | --- | --- | --- | --- | --- | --- | --- | --- | --- | --- |
| COC(=O)CC[C@@H](NC(=O)C(C)NC(=O)COC1C(O)C(COC(=O)CCCCCCCCCCNC(=O)c2ccc([N+](=O)[O-])c3[nH]c4cc(Br)ccc4c(=O)c23)OC(OCc2ccccc2)C1NC(C)=O)C(N)=O (stereo partly specified) | > 100 µM (inactive) | 26.2 µM (inactive) | 68.7 µM (inactive) | > 100 µM (inactive) | > 100 µM (inactive) | > 100 µM (inactive) | > 100 µM (inactive) | 25.7 µM (inactive) | 17.3 µM (inactive) | 56.6 µM (inactive) | 65.8 µM (inactive) | > 100 µM (inactive) | 83.8 µM (inactive) | 57.3 µM (inactive) | 44.4 µM (inactive) | > 100 µM (inactive) |  |  |  |  |
| O=S(=O)(N/N=C\c1c2ccccc2[n+]([O-])c2ccccc12)c1ccc(Cl)cc1 | > 100 µM (inactive) | > 100 µM (inactive) | > 100 µM (inactive) | > 100 µM (inactive) | > 100 µM (inactive) | 66.4 µM (inactive) | 45.5 µM (inactive) | > 100 µM (inactive) | > 100 µM (inactive) |  | > 100 µM (inactive) | > 100 µM (inactive) | 80 µM (inactive) | > 100 µM (inactive) | 48.2 µM (inactive) |  | > 100 µM (inactive) |  |  |  |
| Cc1cc(C)cc(C(=N)c2ccccc2Cc2cccc3ccccc23)c1 | 17.7 µM (inactive) |  | 16.6 µM (inactive) | 26.4 µM (inactive) | 9.66 µM (inactive) | 11 µM (inactive) | 10.1 µM (inactive) | 18.7 µM (inactive) | 16.7 µM (inactive) | 17.3 µM (inactive) | 13.9 µM (inactive) | 16 µM (inactive) | 18 µM (inactive) | 13.5 µM (inactive) | 16.3 µM (inactive) |  | 27.9 µM (inactive) | 16.2 µM (inactive) | 3.47 µM (inactive) | 21.1 µM (inactive) |
| Nc1nc(NCCCO)cc(=O)[nH]1 | > 100 µM (inactive) |  | > 100 µM (inactive) | > 100 µM (inactive) | > 100 µM (inactive) | > 100 µM (inactive) | > 100 µM (inactive) | > 100 µM (inactive) | > 100 µM (inactive) | > 100 µM (inactive) | > 100 µM (inactive) | > 100 µM (inactive) | > 100 µM (inactive) | > 100 µM (inactive) | > 100 µM (inactive) |  | > 100 µM (inactive) | > 100 µM (inactive) | > 100 µM (inactive) | > 100 µM (inactive) |
| COc1cccc(C2c3cc4c(cc3OC(NNc3ccccc3)C2C)OCO4)c1OC (stereo unspecified) | 9.84 µM (inactive) |  | 14 µM (inactive) | 2.82 µM (inactive) | 12 µM (inactive) | 0.678 µM (active) | 3.78 µM (inactive) | 4.4 µM (inactive) | 3.45 µM (inactive) | 3.76 µM (inactive) | 2.78 µM (inactive) | 3.58 µM (inactive) | 3.64 µM (inactive) | 3.26 µM (inactive) | 1.49 µM (inactive) |  | 14.9 µM (inactive) | 4.73 µM (inactive) | 6.35 µM (inactive) | 5.46 µM (inactive) |
| COc1cc(CC2C(=O)OCC2[C@@H](OC(C)=O)c2ccc3c(c2)OCO3)c(Br)c(OC)c1OC (stereo partly specified) | > 100 µM (inactive) | 33.9 µM (inactive) | 30.9 µM (inactive) | 53.3 µM (inactive) | 35.9 µM (inactive) | 33.1 µM (inactive) | 76.7 µM (inactive) | 59.2 µM (inactive) | > 100 µM (inactive) | 51.3 µM (inactive) | 37.8 µM (inactive) | 39.4 µM (inactive) | > 100 µM (inactive) | 48.3 µM (inactive) |  | 62.8 µM (inactive) |  |  |  |  |
| O=[N+]([O-])c1ccc(S(=O)(=O)Cc2ccccc2)c([N+](=O)[O-])c1 | 1.91 µM (inactive) |  | 2.12 µM (inactive) | 1.58 µM (inactive) | 2.18 µM (inactive) | 16.6 µM (inactive) | 1.87 µM (inactive) | 1.44 µM (inactive) | 1.87 µM (inactive) | 1.75 µM (inactive) | 2.24 µM (inactive) | 11.4 µM (inactive) | 2.9 µM (inactive) | 5.12 µM (inactive) | 1.13 µM (inactive) |  | 15.6 µM (inactive) | 1.87 µM (inactive) | 4.12 µM (inactive) | 1.96 µM (inactive) |
| Cc1cc(-c2nc3ccccc3s2)ccc1N | 32.9 µM (inactive) |  | 21.9 µM (inactive) | 6.92 µM (inactive) | 40.3 µM (inactive) | 43 µM (inactive) | 46.7 µM (inactive) | 35.9 µM (inactive) | 26.6 µM (inactive) | 50.8 µM (inactive) | 46.1 µM (inactive) | 32.8 µM (inactive) | 49.9 µM (inactive) | 27.2 µM (inactive) | 38.8 µM (inactive) |  | 4.34 µM (inactive) | < 0.0133 µM (active) | > 100 µM (inactive) | 60.7 µM (inactive) |
